Common to all, as to type: cell-based, human
For data set [1], the system named is hTRIP-Br2 mRNA. The data set is described as follows: Semi-quantitative RT-PCR of intact hTRIP-Br2 transcripts in WI-38 cells. To be noted: WI-38, 0.1 μM, 16 h post-stimulation with 10% FBS. How it is done: (§1) DNA enzyme transfection. WI-38 cells were rendered quiescent by cultivation in serum-free medium for 72 h before being transfected with DNA enzyme (0.1 μM) using Superfect as reported previously (Santiago, F. S., et al. Nat Med 5, 1264-1269 (1999)) in accordance to manufacturer's recommendations (Qiagen).
(§2) Semi-quantitative RT-PCR. Following various treatments, WI-38 cells in 6-well culture dish were subjected to total RNA extraction using the TRIZOL® Reagent (Life Technologies). Total RNA (4 μg) was reversed transcribed using oligo-dT and M-MLV reverse transcriptase in a total reaction volume of 20 μl. Polymerase Chain Reactions (PCR) were carried out on 3 μl cDNA sample in the presence of […] deoxyribonucleotide triphosphates (dNTPs) and 40 μM of specific primer pairs in a total reaction volume of 50 μl. […] Post-PCR samples were analyzed by agarose gel electrophoresis.
(§3) FIG. 11: (A) hTRIP-Br1 and hTRIP-Br2 expression is serum-inducible. […] At 24 h post-serum re-stimulation, semi-quantitative RT-PCR analysis was performed on total RNA to assess hTRIP-Br1 and hTRIP-Br2 expression. β-actin was included as an internal control. […] Semi-quantitative RT-PCR analysis was performed on total RNA to assess hTRIP-Br1 and hTRIP-Br2 expression. β-actin was included as an internal control. […]

In data set [2] the test system is WI-38 cells. The experiment in a line: Colony formation assay of WI-38 cells (crystal violet). To be noted: WI-38, serum-induced, 72 h. The method, then:
as §1
Cell proliferation assays. For the BrdU incorporation assays, growth-quiescent WI-38 cells in 96-well dishes were transfected with DNA enzyme and/or 100 ng of pCMV/E2F1, pCMV/DP1, pRSV/Cyclin E, or pCMV/Cdk2 and then exposed to Bromodeoxyuridine (BrdU, 100 μM) in the presence or absence of 10% FBS for 20 h. Bromodeoxyuridine (BrdU) incorporation was monitored with a calorimetric ELISA assay using a cell proliferation kit according to manufacturer's recommendations (Boehringer Mannheim). For manual cell count, growth-quiescent WI-38 cells in 24-well dishes were transfected with DNA enzyme and then exposed to 10% FBS for 72 h. The cells were rinsed with PBS, pH 7.4, and trypsinized, and 10 μl of cell suspension was taken from each sample and mixed with equal volume of trypan blue stain (Sigma, 0.4% w/v in 1×PBS). The number of unstained cells was enumerated manually using a hemocytometer. […] Cells were stained in situ with crystal violet (0.75% w/v hexamethyl-p-rosaniline chloride [SIGMA], 50% ethanol, 1.75% w/v paraformaldehyde, 0.25% w/v NaCl) for 10 min, and then rinsed thoroughly with deionized water to remove excess stains.
FIG. 12: (A) E-Br1 or E-Br2 inhibits cell proliferation. Sub-confluent WI-38 cells were serum-starved for 72 h. Following DNA enzyme transfection, the cultures were re-stimulated with serum and allowed to proliferate. After 72 h, cells were harvested for viable cell count analysis. 10 μl of cell suspension from each sample was mixed with equal volume of 0.4% trypan blue stain. The number of unstained cells was enumerated manually using a hemocytometer. Data represent the average of at least two independent experiments. […] (B) E-Br1 or E-Br2 suppresses colony formation. Sub-confluent WI-38 cells were serum-starved for 72 h. […]

The test system of data set [3] is hTRIP-Br1 mRNA. The experiment in a line: Semi-quantitative RT-PCR of intact hTRIP-Br1 transcripts in WI-38 cells. The settings on record: WI-38, 0.1 μM, 16 h post-stimulation with 10% FBS. The method, then:
as §1, §2, §3

Results on two substances are retold here after US7223733B2, “Modulation of TRIP-Br function and method of treating proliferative disorders” (National University of Singapore, priority 2004, dated 2007).

[invdT] = inverted (3'-3') thymidine

In the case of “5′-T TACCCAACAGGCTAGCTACAACGAATATCACA-3′ (DNA TTACCCAACAGGCTAGCTACAACGAATATCACA; DNA, 3' [invdT], backbone not given here) [E-Br2]”, in data set [1], the “serum-inducible steady-state hTRIP-Br2 mRNA level” value is reported as “efficiently down-regulated”. In addition, the colony forming potential entry in data set [2] is given as “significantly reduced colony forming potential”.
“5′-T TGCTCAGCAGGCTAGCTACAACGACTTGCTCA-3′ (DNA TTGCTCAGCAGGCTAGCTACAACGACTTGCTCA; DNA, 3' [invdT], backbone not given here) [E-Br1]”: the “serum-inducible steady-state hTRIP-Br1 mRNA level” value in data set [3] is recorded as “efficiently down-regulated”. In addition, the colony forming potential entry in data set [2] was “significantly reduced colony forming potential”.
